Assay results reported in paper PMC11087803 (Proceedings of the National Academy of Sciences of the …, 2024).

Assays:
[1] = Metabolic stability assay in liver microsomes; format: in vitro ADME, mouse
[2] = Metabolic stability assay in liver microsomes; format: in vitro ADME, human

With Cc1nnc2n1-c1ccc(Cl)cc1C(c1ccccc1)=NC2 [Alprazolam] the “MLM t1/2” value ([1]; mouse liver microsomes 0.5 mg protein/mL, 2.0 μM compound, 37°C) was 4.93 h, the microsomal CLint at 2 μM ([1]; mouse, liver microsomes) was 5 µL/min/mg and the “HLM t1/2” value ([2]; human liver microsomes 0.5 mg protein/mL, 2.0 μM compound, 37°C) was 13.9 h. The microsomal CLint at 2 μM ([2]; human, liver microsomes) was 2 µL/min/mg.
